Experiments:
[1] = target: T1, Rhodopsin kinase GRK1 (Homo sapiens, UniProt Q15835); test: The low salt concentration and DDM were used to maximize GRK activity and disrupt small molecule aggregates from forming, respectively. Reactions were quenched with SDS loading buffer, separated via SDS-PAGE, dried and exposed with a phosphorimaging screen prior to quantification via Typhoon imager, as previously reported (see Thal et al., ACS Chemical Biology 7(11):1830-1839 (2012)). Data was analyzed and inhibition curves were fit via GraphPad Prism.
T1 sequence (Q15835 whole entry): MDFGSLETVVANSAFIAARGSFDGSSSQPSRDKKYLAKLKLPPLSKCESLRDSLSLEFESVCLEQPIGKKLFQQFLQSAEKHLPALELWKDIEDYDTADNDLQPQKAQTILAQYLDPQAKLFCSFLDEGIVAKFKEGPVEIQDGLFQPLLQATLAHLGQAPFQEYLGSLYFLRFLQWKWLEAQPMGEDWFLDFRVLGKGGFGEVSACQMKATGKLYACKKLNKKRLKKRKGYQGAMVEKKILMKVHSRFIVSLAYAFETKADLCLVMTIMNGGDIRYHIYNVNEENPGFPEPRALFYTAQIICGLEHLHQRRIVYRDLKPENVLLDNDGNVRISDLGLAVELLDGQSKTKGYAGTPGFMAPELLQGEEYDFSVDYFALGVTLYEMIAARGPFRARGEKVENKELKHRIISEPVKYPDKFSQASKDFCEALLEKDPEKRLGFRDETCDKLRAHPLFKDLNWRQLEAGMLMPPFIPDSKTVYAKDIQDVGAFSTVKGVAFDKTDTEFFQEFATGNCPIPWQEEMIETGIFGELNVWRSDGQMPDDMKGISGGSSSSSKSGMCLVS

[2] = target: G protein-coupled receptor kinase 5 (Homo sapiens, UniProt P34947); test: The low salt concentration and DDM were used to maximize GRK activity and disrupt small molecule aggregates from forming, respectively. […] Data was analyzed and inhibition curves were fit via GraphPad Prism.
Chain of G protein-coupled receptor kinase 5 (P34947 whole entry): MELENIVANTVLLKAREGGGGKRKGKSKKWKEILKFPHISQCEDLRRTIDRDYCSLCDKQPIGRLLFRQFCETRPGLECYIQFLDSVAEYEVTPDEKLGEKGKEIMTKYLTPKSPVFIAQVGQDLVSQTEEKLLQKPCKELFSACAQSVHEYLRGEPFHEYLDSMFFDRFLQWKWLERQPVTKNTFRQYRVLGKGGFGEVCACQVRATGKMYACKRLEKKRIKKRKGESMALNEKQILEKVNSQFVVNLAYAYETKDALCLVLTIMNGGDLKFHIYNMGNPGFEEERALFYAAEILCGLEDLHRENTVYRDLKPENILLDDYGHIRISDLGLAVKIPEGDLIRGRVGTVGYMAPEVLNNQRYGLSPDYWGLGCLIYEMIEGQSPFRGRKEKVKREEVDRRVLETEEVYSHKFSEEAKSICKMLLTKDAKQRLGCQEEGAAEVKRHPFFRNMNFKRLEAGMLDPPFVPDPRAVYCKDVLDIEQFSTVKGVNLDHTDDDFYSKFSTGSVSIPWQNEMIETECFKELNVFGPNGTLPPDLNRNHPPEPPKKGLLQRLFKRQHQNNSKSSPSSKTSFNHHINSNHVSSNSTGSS

IC50 [2] [µM] | SMILES | IC50 [1] [µM]
 | CC1=C(C(=O)Nc2ccc3[nH]ncc3c2)C(c2ccc(F)c(CC(=O)N(CCO)Cc3ccco3)c2)NC(=O)N1 (centres undefined) | 21
4.4 | C#CCN(Cc1ccco1)C(=O)Cc1cc(C2NC(=O)NC(C)=C2C(=O)Nc2ccc3[nH]ncc3c2)ccc1F (centres undefined) | 
8.9 | C#CCN(CC(C)C)C(=O)Cc1cc(C2NC(=O)NC(C)=C2C(=O)Nc2ccc3[nH]ncc3c2)ccc1F (centres undefined) | 
5.4 | CC1=C(C(=O)Nc2ccc3[nH]ncc3c2)C(c2ccc(F)c(C(=O)NCc3nccc4ccccc34)c2)NC(=O)N1 (centres undefined) | 

Source: ChEMBL document CHEMBL5725686, “G protein-coupled receptor kinase 2 inhibitors and methods for use of the same” (2018)
